Earlier results in publication PMC10088252.
Where two headings read alike, the source gives them in different places.

Columns and labels:
[1] = tested on: NSCLC harboring MET exon 14 skipping mutation; set-up: method as in PMID 34166627; settings: cited from earlier work
[2] = tested on: MET- or ROS1-positive NSCLC; set-up: method as in PMID 31584608; settings: cited from earlier work
[3] = tested on: MET-positive solid tumors; set-up: method as in PMID 31778267; settings: all patients (76); cited from earlier work
[4] = tested on: MET exon 14-mutated or MET-amplified NSCLC; set-up: method as in PMID 32877583; settings: cited from earlier work
[5] = tested on: MET exon 14-mutated NSCLC; set-up: method as in PMID 35720834; settings: real-world; cited from earlier work
[6] = tested on: advanced solid tumors with c-MET H-score of ≥ 150; set-up: method as in PMID 30285518; settings: 16 patients with NSCLC; cited from earlier work
[7] = of 13 patients with brain metastases at baseline

## C[C@@H](c1ccc2nccn2c1)n1nnc2ncc(-c3cnn(C)c3)nc21 [savolitinib]
[1]; 15 MET exon 14-mutated NSCLC patients with brain metastases
  DCR: 93.3%
[1]
  grade ≥ 3 TRAE increased ALT: 10%
  grade ≥ 3 TRAE increased AST: 13%
  grade ≥ 3 TRAE peripheral oedema: 9%
  incidence of grade ≥ 3 TRAEs: 46%
[1]; patients harboring MET exon 14 skipping mutation, FAS
  ORR: 42.9%

## C[C@@H](Oc1cc(-c2cnn(C3CCNCC3)c2)cnc1N)c1c(Cl)ccc(F)c1Cl [crizotinib]
[2]; MET copy number ≥ 6
  ORR: 16%
[2]; MET mutation
  ORR: 10.7%

## CNC(=O)c1ccc(-c2cnc3ncc(Cc4ccc5ncccc5c4)n3n2)cc1F [capmatinib]
[3]
  DCR: 26%
[4]; MET amplification, gene copy number < 10
  ORR: 7–12%
[4]; MET amplification, gene copy number ≥ 10, previously treated
  ORR: 29%
[4]; MET amplification, gene copy number ≥ 10, treatment-naïve
  ORR: 40%
[4]
  TEAE nausea: 45%
  TEAE peripheral edema: 51%
  patients who discontinued treatment due to TRAEs: 11%
[4]; [7]
  patients achieving intracranial response: Seven
  patients with intracranial CR: four
[4]; patients harboring MET exon 14 skipping mutation
  ORR: 41%
[4]; previously treated MET exon 14-mutated NSCLC
  ORR: 41%
[4]; treatment-naïve MET exon 14-mutated NSCLC
  ORR: 68%
[5]
  ORR: 58%
  median PFS: 9.5 months

B1: telisotuzumab vedotin (conjugate, chains of the INN, looked up)
VH: QVQLVQSGAEVKKPGASVKVSCKASGYIFTAYTMHWVRQAPGQGLEWMGWIKPNNGLANYAQKFQGRVTMTRDTSISTAYMELSRLRSDDTAVYYCARSEITTEFDYWGQGTLVTVSS
VL: DIVMTQSPDSLAVSLGERATINCKSSESVDSYANSFLHWYQQKPGQPPKLLIYRASTRESGVPDRFSGSGSGTDFTLTISSLQAEDVAVYYCQQSKEDPLTFGGGTKVEIK
modifications: vedotin (MMAE) payload
[6]
  DCR: 56%
